Assay results as given in the NIST ThermoML archive (doi:10.1021/je060271a).

Details: Liquid, Vibrating tube method

CCCCCC(=O)OCC(COC(=O)CCCCC)(COC(=O)CCCCC)COC(=O)CCCCC [pentaerythritol tetrahexanoate]
Details	mass density [kg/m3]
323.16 K, 30799 kPa	992.6
323.16 K, 30820 kPa	992.6
323.16 K, 30845 kPa	992.6
323.16 K, 30870 kPa	992.7
323.16 K, 30895 kPa	992.6
323.16 K, 30916 kPa	992.5
323.16 K, 30942 kPa	992.7
323.16 K, 30968 kPa	992.6
323.16 K, 30994 kPa	992.7
323.16 K, 31020 kPa	992.9
323.16 K, 31046 kPa	992.7
323.16 K, 31070 kPa	992.8
323.16 K, 31096 kPa	992.8
323.16 K, 31122 kPa	992.8
323.16 K, 31139 kPa	992.8
323.16 K, 31159 kPa	992.8
323.16 K, 31180 kPa	992.8
323.16 K, 31200 kPa	992.8
323.16 K, 31217 kPa	992.9
323.16 K, 31237 kPa	992.9
323.16 K, 31258 kPa	992.9
323.16 K, 31278 kPa	993
323.16 K, 31295 kPa	992.7
323.16 K, 31315 kPa	993
323.16 K, 31335 kPa	992.9
323.16 K, 31356 kPa	993
323.16 K, 31378 kPa	992.9
323.16 K, 31395 kPa	992.9
323.16 K, 31412 kPa	993
323.16 K, 31433 kPa	993.1
323.16 K, 31554 kPa	993.1
323.16 K, 31575 kPa	993.1
323.16 K, 31592 kPa	993.1
323.16 K, 31613 kPa	993
323.16 K, 31635 kPa	993
323.16 K, 31777 kPa	993.1
323.16 K, 31798 kPa	993.2
323.16 K, 31820 kPa	993.2
323.16 K, 31838 kPa	993.2
323.16 K, 31860 kPa	993.2
323.16 K, 31882 kPa	993.2
323.16 K, 31905 kPa	993.3
323.16 K, 31927 kPa	993.3
323.16 K, 31950 kPa	993.2
323.16 K, 31973 kPa	993.4
323.16 K, 31996 kPa	993.3
323.16 K, 32016 kPa	993.3
323.16 K, 32032 kPa	993.4
323.16 K, 32048 kPa	993.4
323.16 K, 32064 kPa	993.3
323.16 K, 32081 kPa	993.4
323.16 K, 32097 kPa	993.3
323.16 K, 32114 kPa	993.3
323.16 K, 32132 kPa	993.4
323.16 K, 32149 kPa	993.3
323.16 K, 32165 kPa	993.4
323.16 K, 32183 kPa	993.4
323.16 K, 32202 kPa	993.5
323.16 K, 32221 kPa	993.5
323.16 K, 32240 kPa	993.4
323.16 K, 32260 kPa	993.5
323.16 K, 32366 kPa	993.4
323.16 K, 32374 kPa	993.5
323.16 K, 32380 kPa	993.5
323.16 K, 32383 kPa	993.5
323.17 K, 1378.9 kPa	973.7
323.17 K, 2060 kPa	974
323.17 K, 2070.1 kPa	974.2
323.17 K, 15528 kPa	983.3
323.17 K, 15553 kPa	983.3
323.17 K, 15582 kPa	983.4
323.17 K, 15606 kPa	983.4
323.17 K, 15845 kPa	983.4
323.17 K, 15865 kPa	983.5
323.17 K, 15889 kPa	983.4
323.17 K, 15909 kPa	983.5
323.17 K, 15932 kPa	983.5
323.17 K, 15952 kPa	983.3
323.17 K, 15976 kPa	983.5
323.17 K, 16001 kPa	983.4
323.17 K, 16021 kPa	983.6
323.17 K, 16045 kPa	983.5
323.17 K, 16069 kPa	983.6
323.17 K, 16089 kPa	983.6
323.17 K, 16114 kPa	983.7
323.17 K, 16135 kPa	983.7
323.17 K, 16160 kPa	983.6
323.17 K, 16308 kPa	983.8
323.17 K, 16329 kPa	983.7
323.17 K, 16337 kPa	983.7
323.17 K, 16338 kPa	983.8
323.17 K, 16340 kPa	983.8
323.17 K, 19154 kPa	985.4
323.17 K, 19182 kPa	985.6
323.17 K, 19210 kPa	985.5
323.17 K, 19238 kPa	985.5
323.17 K, 19267 kPa	985.7
323.17 K, 19296 kPa	985.6
323.17 K, 19320 kPa	985.7
323.17 K, 19350 kPa	985.6
323.17 K, 20368 kPa	986.3
323.17 K, 20425 kPa	986.4
323.17 K, 22257 kPa	987.5
323.17 K, 22284 kPa	987.5
323.17 K, 22311 kPa	987.5
323.17 K, 22338 kPa	987.6
323.17 K, 22361 kPa	987.6
323.17 K, 22388 kPa	987.5
323.17 K, 22416 kPa	987.7
323.17 K, 22443 kPa	987.6
323.17 K, 22466 kPa	987.7
323.17 K, 22493 kPa	987.7
323.17 K, 22520 kPa	987.5
323.17 K, 25533 kPa	989.4
323.17 K, 25562 kPa	989.5
323.17 K, 25592 kPa	989.5
323.17 K, 25621 kPa	989.5
323.17 K, 25651 kPa	989.4
323.17 K, 25676 kPa	989.5
323.17 K, 25737 kPa	989.6
323.17 K, 25767 kPa	989.6
323.17 K, 25792 kPa	989.7
323.17 K, 25823 kPa	989.7
323.17 K, 25853 kPa	989.7
323.17 K, 25884 kPa	989.6
323.17 K, 25909 kPa	989.8
323.17 K, 25940 kPa	989.8
323.17 K, 25972 kPa	989.8
323.17 K, 26003 kPa	989.7
323.17 K, 26033 kPa	989.7
323.17 K, 26762 kPa	990.3
323.17 K, 26791 kPa	990.3
323.17 K, 26815 kPa	990.1
323.17 K, 26845 kPa	990.3
323.17 K, 26872 kPa	990.3
323.17 K, 26901 kPa	990.4
323.17 K, 26930 kPa	990.4
323.17 K, 26959 kPa	990.3
323.17 K, 26984 kPa	990.3
323.17 K, 27013 kPa	990.3
323.17 K, 27043 kPa	990.5
323.17 K, 27073 kPa	990.4
323.17 K, 27102 kPa	990.4
323.17 K, 27127 kPa	990.4
323.17 K, 27157 kPa	990.4
